Measured values published in patent publication US20170304388A1, “NEW INDICATION OF CARDIOVASCULAR DRUGS FOR PREPARATION OF CANCER INHIBITION PHARMACEUTICAL COMPOSITION” (LAUNX BIOMEDICAL CO., LTD., priority 2014, published 2017).
Where a name gives a salt, the structure may show the parent alone. Read-outs that look alike come from different tables or passages of the source.

Assays:
Format in all cases: cell-based
[1] = system: LoVo (Colorectal Adenocarcinoma); assay: Cell viability analysis (WST-1), LoVo; details: for viability at 10 µM: Homo sapiens, LoVo, 72 h
[2] = system: TSGH-8301 (Urinary Bladder Carcinoma); assay: Cell viability analysis (WST-1), TSGH-8301; details: for viability at 10 µM: 72 h
BCC = assay: Cell viability analysis (WST-1), BCC; details: BCC, 72 h, Table 4, repeated experiments, drug 10 μM, read-out: survival rate (viability) of cancer cells, BCC
TOV-21G = assay: Cell viability analysis (WST-1), TOV-21G; details: Homo sapiens, TOV21G, 72 h, Table 4, repeated experiments, drug 10 μM, read-out: survival rate (viability) of cancer cells, TOV-21G
Procedure: (§1) Subculture the different types of cancer cells. The cancer cells includes lung cancer, gastric cancer, hepatic cancer, colon cancer, skin cancer, cervical cancer, prostate cancer, bladder cancer, breast cancer, leukemia, pancreatic cancer, ovarian cancer, tongue cancer, osteosarcoma, and renal cancer. The cell numbers were counted and reseed as 2×10^6 in cell culture plate/flask. Then, the culture medium for culturing the cell lines was added to a volume of 10 ml, and the cells were cultured for 2-3 days. Then, the cells were suspended for loading into 96-well plates. The cell number was 3000 cells and the volume of the culture medium was 100 ul each well.
(§2) Removing the original culture medium from 96-well plate. Then add 100 μl of commercially drug at a concentration of 10 μM per well. After 72 hours, add the diluted WST-1 reagent to the well with 100 μl/well, and the diluted WST-1 reagent was acquired from the dilution of 9:1 medium and WST-1 stock reagent. Finally, the total volume of each well are 200 μl/well. Culture the 96-well plate at 37° C. for 30 to 90 minutes. Detecting and calculating the survival rate of each cancer cells with an ELISA reader at OD450 nm. The lower viability of cancer cells represents better inhibition effect via the drugs. Otherwise, the higher viability of cancer cells represents worse inhibition effect via the drugs.
(§3) According to the above mentioned cardiovascular drugs for cancer growth inhibition in Table 3, the inventors took the repeat experiments for the cardiovascular drugs to check the growth inhibitory effects of cancer cells by the cardiovascular drugs. […] 4.

T24 = assay: Cell viability analysis (WST-1), T24; details: Homo sapiens, T-24, 72 h, Table 4, repeated experiments, drug 10 μM, read-out: survival rate (viability) of cancer cells, T24
Procedure: as §1, §2, §3

786-O = assay: Cell viability analysis (WST-1), 786-O; details: Homo sapiens, 786-0, 72 h, Table 4, repeated experiments, drug 10 μM, read-out: survival rate (viability) of cancer cells, 786-O
Procedure: as §1, §2, §3

[3] = system: PC3 (Prostate Adenocarcinoma); assay: Cell viability analysis (WST-1), PC3; details: for viability at 10 µM: 72 h
[4] = system: AGS (Gastric Adenocarcinoma); assay: Cell viability analysis (WST-1), AGS; details: for viability at 10 µM: 72 h
[5] = system: MKN-45 (Gastric Adenocarcinoma); assay: Cell viability analysis (WST-1), MKN-45; details: for viability at 10 µM: Homo sapiens, MKN-45, 72 h
cancer cell lines = assay: Growth inhibitory effects on the panel of cancer cell lines; details: drug 10 μM, 72 hours; for inhibition effect on different cancer cell lines (in words): WST-1; for Numbers of inhibitory effect on cancer cell line: count of cancer cell lines inhibited
[6] = system: H1650 (Lung Adenocarcinoma); assay: Cell viability analysis (WST-1), H1650; details: for viability at 10 µM: Homo sapiens, NCI-H1650, 72 h
[7] = system: MCF7 (Mammary Gland, Adenocarcinoma); assay: Cell viability analysis (WST-1), MCF7; details: for viability at 10 µM: Homo sapiens, MCF7, 72 h
[8] = system: A375 (Amelanotic Melanoma); assay: Cell viability analysis (WST-1), A375; details: for viability at 10 µM: Homo sapiens, A-375, 72 h
C-33A = assay: Cell viability analysis (WST-1), C-33A; details: Homo sapiens, C-33-A, 72 h, Table 4, repeated experiments, drug 10 μM, read-out: survival rate (viability) of cancer cells, C-33A
Procedure: as §1, §2, §3

BxPC-3 = assay: Cell viability analysis (WST-1), BxPC-3; details: Homo sapiens, BXPC-3, 72 h, Table 4, repeated experiments, drug 10 μM, read-out: survival rate (viability) of cancer cells, BxPC-3
Procedure: as §1, §2, §3

U2OS = assay: Cell viability analysis (WST-1), U2OS; details: Homo sapiens, U2OS, 72 h, Table 4, repeated experiments, drug 10 μM, read-out: survival rate (viability) of cancer cells, U2OS
Procedure: as §1, §2, §3

Hep3B = assay: Cell viability analysis (WST-1), Hep3B; details: Homo sapiens, Hep3B, 72 h, Table 4, repeated experiments, drug 10 μM, read-out: survival rate (viability) of cancer cells, Hep3B
Procedure: as §1, §2, §3

[9] = system: A549 (Lung Adenocarcinoma); assay: Cell viability analysis (WST-1), A549; details: for viability at 10 µM: Homo sapiens, A549, 72 h
[10] = system: HCT116 (Colorectal Carcinoma); assay: Cell viability analysis (WST-1), HCT116; details: for viability at 10 µM: Homo sapiens, HCT-116, 72 h
[11] = system: HeLa (Cervix Adenocarcinoma); assay: Cell viability analysis (WST-1), HeLa; details: for viability at 10 µM: Homo sapiens, HeLa, 72 h
[12] = system: HepG2 (Hepatocellular Carcinoma); assay: Cell viability analysis (WST-1), HepG2; details: for viability at 10 µM: Homo sapiens, HepG2, 72 h
AsPC-1 = assay: Cell viability analysis (WST-1), AsPC-1; details: Homo sapiens, ASPC1, 72 h, Table 4, repeated experiments, drug 10 μM, read-out: survival rate (viability) of cancer cells, AsPC-1
Procedure: as §1, §2, §3

NIH-OVCAR-3 = assay: Cell viability analysis (WST-1), NIH-OVCAR-3; details: Homo sapiens, OVCAR-3, 72 h, Table 4, repeated experiments, drug 10 μM, read-out: survival rate (viability) of cancer cells, NIH-OVCAR-3
Procedure: as §1, §2, §3

SAS = assay: Cell viability analysis (WST-1), SAS; details: 72 h, Table 4, repeated experiments, drug 10 μM, read-out: survival rate (viability) of cancer cells, SAS
Procedure: as §1, §2, §3

[13] = system: HL-60 (Acute Promyelocytic Leukemia); assay: Cell viability analysis (WST-1), HL-60; details: Table 3, drug 10 μM, 72 hours, WST-1, OD450 nm
[14] = Table 4, repeated experiments, drug 10 μM, WST-1, read-out: survival rate (viability) of cancer cells, TSGH-8301
[15] = Table 4, repeated experiments, drug 10 μM, WST-1, read-out: survival rate (viability) of cancer cells, PC-3
[16] = Table 4, repeated experiments, drug 10 μM, WST-1, read-out: survival rate (viability) of cancer cells, AGS
[17] = Table 4, repeated experiments, drug 10 μM, WST-1, read-out: survival rate (viability) of cancer cells, MKN-45
[18] = Table 4, repeated experiments, drug 10 μM, WST-1, read-out: survival rate (viability) of cancer cells, MCF-7
[19] = Table 4, repeated experiments, drug 10 μM, WST-1, read-out: survival rate (viability) of cancer cells, HCT116
[20] = Table 3, drug 10 μM, 72 hours, WST-1, OD450 nm

CCCCc1nc(Cl)c(CO)n1Cc1ccc(-c2ccccc2-c2nn[nH]n2)cc1 [Losartan potassium]
viability at 10 µM ([1]; Table 4, repeated experiments, drug 10 μM, WST-1, read-out: survival rate (viability) of cancer cells, LoVo): 106%
viability at 10 µM [2, 14]: 92%
viability at 10 µM (BCC): 90.2%
viability at 10 µM (TOV-21G): 78.6%
viability at 10 µM (T24): 66.3%
viability at 10 µM (786-O): 96.3%
viability at 10 µM [3, 15]: 120%
viability at 10 µM [4, 16]: 74.1%
viability at 10 µM [5, 17]: 82.8%
inhibition effect on different cancer cell lines (in words) (cancer cell lines): significant inhibition effect
viability at 10 µM ([6]; Table 4, repeated experiments, drug 10 μM, WST-1, read-out: survival rate (viability) of cancer cells, H1650): 77.2%
viability at 10 µM [7, 18]: 87.6%
viability at 10 µM ([8]; Table 4, repeated experiments, drug 10 μM, WST-1, read-out: survival rate (viability) of cancer cells, A375): 96.6%
viability at 10 µM (C-33A): 108%
viability at 10 µM (BxPC-3): 77.7%
viability at 10 µM (U2OS): 105%
viability at 10 µM (Hep3B): 103%
viability at 10 µM ([9]; Table 4, repeated experiments, drug 10 μM, WST-1, read-out: survival rate (viability) of cancer cells, A549): 96%
viability at 10 µM [10, 19]: 106%
viability at 10 µM ([11]; Table 4, repeated experiments, drug 10 μM, WST-1, read-out: survival rate (viability) of cancer cells, HeLa): 83.4%
viability at 10 µM ([12]; Table 4, repeated experiments, drug 10 μM, WST-1, read-out: survival rate (viability) of cancer cells, HepG2): 93.9%
viability at 10 µM (AsPC-1): 86.4%
viability at 10 µM (NIH-OVCAR-3): 98.7%
viability at 10 µM (SAS): 95.7%

CC1=C(C(=O)OC(C)C)C(c2cccc([N+](=O)[O-])c2)C(C(=O)OC2CN(C(c3ccccc3)c3ccccc3)C2)=C(N)N1 (stereo not shown) [Azelnidipine]
viability at 10 µM [2, 14]: 115%
viability at 10 µM (BCC): 100%
viability at 10 µM [3, 15]: 121%
viability at 10 µM [4, 16]: 90.2%
viability at 10 µM [5, 17]: 139%
viability at 10 µM [7, 18]: 60.8%
viability at 10 µM (BxPC-3): 64.6%
viability at 10 µM [10, 19]: 111%
viability at 10 µM (AsPC-1): 53.6%
viability at 10 µM (SAS): 76.8%

CNC[C@@H](O)c1ccc(O)c(O)c1 [L-Adrenaline (Epinephrine), L-Adrenaline]
survival rate (viability) of cancer cells, LoVo [1, 20]: 93.6
survival rate (viability) of cancer cells, TSGH [2, 20]: 64.7
survival rate (viability) of cancer cells, HL-60 [13]: 101.8
survival rate (viability) of cancer cells, PC3 [3, 20]: 106.0
survival rate (viability) of cancer cells, AGS [4, 20]: 61.1
survival rate (viability) of cancer cells, MKN-45 [5, 20]: 69.4
Numbers of inhibitory effect on cancer cell line (cancer cell lines): 0
inhibition effect on different cancer cell lines (in words) (cancer cell lines): significant inhibition effect
survival rate (viability) of cancer cells, H1650 [6, 20]: 76.6
survival rate (viability) of cancer cells, MCF7 [7, 20]: 123.0
survival rate (viability) of cancer cells, A375 ([8]; Table 3, drug 10 μM, 72 hours, WST-1, OD450 nm, lower viability = better inhibition): 101.9
survival rate (viability) of cancer cells, A549 [9, 20]: 90.8
survival rate (viability) of cancer cells, HCT116 (WT) [10, 20]: 85.0
survival rate (viability) of cancer cells, HeLa [11, 20]: 88.7
survival rate (viability) of cancer cells, HepG2 [12, 20]: 81.6

Clc1ccccc1CN1CCc2sccc2C1 [Ticlopidine HCl]
viability at 10 µM ([1]; Table 3, drug 10 μM, WST-1, OD450 nm, read-out: survival rate (viability) of cancer cells, LoVo): 90.5%
viability at 10 µM ([2]; Table 3, drug 10 μM, WST-1, OD450 nm, read-out: survival rate (viability) of cancer cells, TSGH): 112%
viability at 10 µM ([13]; Homo sapiens, HL-60, read-out: survival rate (viability) of cancer cells, HL-60): 102%
viability at 10 µM ([3]; Table 3, drug 10 μM, WST-1, OD450 nm, read-out: survival rate (viability) of cancer cells, PC3): 69.9%
viability at 10 µM ([4]; Table 3, drug 10 μM, WST-1, OD450 nm, read-out: survival rate (viability) of cancer cells, AGS): 77.2%
viability at 10 µM ([5]; Table 3, drug 10 μM, WST-1, OD450 nm, read-out: survival rate (viability) of cancer cells, MKN-45): 72.7%
Numbers of inhibitory effect on cancer cell line (cancer cell lines): 0
inhibition effect on different cancer cell lines (in words) (cancer cell lines): significant inhibition effect
viability at 10 µM ([6]; Table 3, drug 10 μM, WST-1, OD450 nm, read-out: survival rate (viability) of cancer cells, H1650): 61.6%
viability at 10 µM ([7]; Table 3, drug 10 μM, WST-1, OD450 nm, read-out: survival rate (viability) of cancer cells, MCF7): 96.8%
viability at 10 µM ([8]; Table 3, drug 10 μM, WST-1, OD450 nm, lower viability = better inhibition, read-out: survival rate (viability) of cancer cells, A375): 86.5%
viability at 10 µM ([9]; Table 3, drug 10 μM, WST-1, OD450 nm, read-out: survival rate (viability) of cancer cells, A549): 84.9%
viability at 10 µM ([10]; Table 3, drug 10 μM, WST-1, OD450 nm, read-out: survival rate (viability) of cancer cells, HCT116 (WT)): 71.9%
viability at 10 µM ([11]; Table 3, drug 10 μM, WST-1, OD450 nm, read-out: survival rate (viability) of cancer cells, HeLa): 81.9%
viability at 10 µM ([12]; Table 3, drug 10 μM, WST-1, OD450 nm, read-out: survival rate (viability) of cancer cells, HepG2): 97.4%
